Reference: a melting point compilation (Tetko et al.; mined from patent text by program, amines drawn as free bases though some values may be those of a salt)

| melting point | SMILES |
| --- | --- |
| 160 to 162 °C | Cc1nc(-n2ccn(CCc3ccc(F)cc3)c2=O)sc1C(=O)NCc1cccnc1 |
| 149 to 150 °C | CC(C)n1c(=O)[nH]c(C(F)(F)F)c(Br)c1=O |
| 150 to 151 °C | COC(=O)c1ccc(Cc2cn(C)c3ccc(C(=O)NCC(C)CC(F)(F)F)cc23)c(OC)c1 (configuration not stated) |
| 52 to 57 °C | COCCc1nc2c(N)nc3ccccc3c2n1CCOCCN(C)C(=O)C1CCCCC1 |
| 148 °C | COc1ccc(C(=O)Nc2cc(NC(=O)c3cccc(N4CCOCC4)c3)ccc2Cl)cc1OC |
| 75 °C | CCOC(=O)Cc1ccccc1Oc1ccc(C)cc1 |
| 192 to 193 °C | CCn1c2ccccc2c2cc(NC(=O)c3c(C)cccc3C)ccc21 |
| 139 to 143 °C | Cc1cc(C(=O)CCc2sc(-c3ccc(C(F)(F)F)cc3)cc2C(C)C)ccc1OCC(=O)O |
| 157 to 159 °C | O=C(Nc1nc(C(F)(F)F)c(I)s1)c1c(Cl)cccc1Cl |
| 197 to 198 °C | O=C(CC1CCN(Cc2ccccc2)CC1)c1ccc(O)cc1 |
| 152 to 154 °C | COc1cc(/C=C/C(=O)/C=C/C(=O)O)cc(OC)c1OC |
| 126 °C | CCOC(=O)/C(=N\OC1(C)CCCCC1)c1csc(N)n1 |
| > 300 °C | CC(C)(C)c1cc(CON2C(=O)COc3ccc(C=C4SC(=S)NC4=O)cc32)cc(C(C)(C)C)n1 |
| 139 to 140 °C | CCOC(=O)C1CCC2(CCN(S(=O)(=O)c3ccc(C)cc3)c3ccccc3C2)C1O (configuration not stated) |
| 125 to 128 °C | CC1(C)CN(CC(=O)c2ccccc2)c2cc([N+](=O)[O-])ccc2O1 |
| 112 to 114 °C | C=CCN(CC=C)c1ccc(C(C)N(O)C(N)=O)cc1 (configuration not stated) |
| 142 to 144 °C | CC(C)(C)OC(=O)C[C@@H]1C[C@@H](COc2ccc(-c3ccc(C#N)c(F)c3)cc2)NC1=O |
| 182 to 184 °C | Cc1ccc(-c2cc(N3CCCC3)c(C#N)c3c2-c2ccccc2C3)cc1 |

| melting point | SMILES |
| --- | --- |
| 196 to 198 °C | N#Cc1c(N2CCc3ccccc3CC2)nc(=O)[nH]c1OCC(F)(F)F |
| 220 °C | CCCCNC(=O)c1cccc(S(=O)(=O)NC(=O)c2ccc(C(=O)NCC(=O)O)nc2)c1 |
| 54 to 57 °C | COc1cc(C(C)C(=O)NCC(COC(=O)C(C)(C)C)Cc2ccc(C)c(C)c2)ccc1NS(C)(=O)=O (configuration not stated) |
| 229 to 234 °C | O=C(/C=C/c1ccc(C(F)(F)F)cc1-c1ccncc1)Nc1ccc2[nH]ccc2c1 |
| 47 to 49 °C | C#CCN(C)Cc1ccc([N+](=O)[O-])cc1 |
| 47 to 48 °C | O=C(O)CCCCCCCCCCCc1ccccc1 |
| 59 to 61 °C | CCCn1c(CC)ccc1Cc1cccc(NC(N)=O)c1 |
| 287 to 288 °C | CC1(C)CCC(C)(C)c2cc(-c3cc(-c4ccc(C(=O)O)cc4)ccc3-c3ccccc3)ccc21 |
| 181 to 182 °C | Cc1oc(-c2ccco2)nc1COc1ccc(COc2nn(Cc3ccccc3)cc2C(=O)O)cc1-c1ccccc1 |
| 63 to 65 °C | O=[N+]([O-])c1cccc2c1OC(CO)C2 (configuration not stated) |
| 215 to 217 °C | O=c1c(-c2ccccc2)c(SCc2ccccc2)oc2cc(O)ccc12 |
| 306 to 307 °C | COc1cc2cc(C(=O)O)sc(=O)c2cc1OC |
| 190 to 192 °C | CSc1ccc(-n2cnc3ccc(-c4nnc(CC(F)(F)F)o4)cc32)cc1 |
| 156 to 158 °C | COC(=O)Nc1cc(Cl)nc(NC(=O)OC)n1 |
| 101 to 103 °C | COc1cccc(/C(=C/C=C/C(=O)Oc2ccc([N+](=O)[O-])cc2)c2ccccc2)c1 |
| 76.1 to 79.9 °C | CC(C(=O)NCCCCn1cnc2c(N)nc3ccccc3c21)c1ccc(-c2ccccc2)c(F)c1 (configuration not stated) |
| 209 to 211 °C | CC(C)(C)CC(C)(C)c1cc(-c2cc(C(C)(C)CC(C)(C)C)cc(-n3nc4ccccc4n3)c2O)c(O)c(-n2nc3ccccc3n2)c1 |
| 103 to 104 °C | CC(C)(C=O)S(=O)(=O)c1ccccc1 |

| SMILES | melting point |
| --- | --- |
| CN1CCC(c2n[nH]c3ccc([N+](=O)[O-])cc23)CC1 | 237 to 239 °C |
